For orientation: pIC50 means the IC50 on a negative log10 scale, so that one unit is a factor of ten. The Dmax is the greatest extent of degradation seen. Usually DC50 stands for the midpoint of the concentration-degradation curve.

The text below walks through data of US12528814B2, “Bifunctional degraders of interleukin-1 receptor-associated kinases and therapeutic use thereof” (NURIX THERAPEUTICS, INC., priority 2020, dated 2026).

Assay [1] deals with T1, IRAK4 (Homo sapiens (Human), UniProt Q9NWZ3). The assay can be described thus: IRAK4 Biochemical HTRF Kinase Assay. Conditions: Table 5; multiple runs; read-out: IRAK4 HTRF biochemical: IC50. Summed up: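 HTRF KinEASE STK S1 format measuring IRAK4 phosphorylation of biotinylated peptide; reaction solution of 5 μM STK-S1, 10 mM ATP, 10 mM MgCl2 added (stock, to 10 μl final), 90 min at ambient temperature, detection 60 min. IC50 from sixteen-point duplicate curves by non-linear regression.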
Background: TR-FRET usually uses a lanthanide donor and a delayed reading to cut background.
Target sequence in this assay (Q9NWZ3 whole entry, species assumed): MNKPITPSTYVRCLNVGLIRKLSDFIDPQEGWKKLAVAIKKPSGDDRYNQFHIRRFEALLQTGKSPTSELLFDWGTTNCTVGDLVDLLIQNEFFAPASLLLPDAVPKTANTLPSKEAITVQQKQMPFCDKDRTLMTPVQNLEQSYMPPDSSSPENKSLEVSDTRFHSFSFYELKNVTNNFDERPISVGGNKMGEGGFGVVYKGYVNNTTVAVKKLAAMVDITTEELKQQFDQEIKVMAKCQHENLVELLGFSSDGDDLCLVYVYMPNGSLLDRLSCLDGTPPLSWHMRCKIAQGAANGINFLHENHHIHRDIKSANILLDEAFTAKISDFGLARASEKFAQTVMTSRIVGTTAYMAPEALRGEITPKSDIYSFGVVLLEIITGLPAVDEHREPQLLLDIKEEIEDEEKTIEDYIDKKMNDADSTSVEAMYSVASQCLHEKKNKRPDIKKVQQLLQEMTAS

Assay [2] has as its target T1, IRAK4. The assay can be described thus: IRAK4 Degradation HiBiT Assay. Conditions: multiple runs, HiBiT-tagged Jurkat cells, 4 hrs; for Dmax: Jurkat, read-out: Cellular IRAK4 HiBiT: Dmax, Table 5; for DC50: read-out: Cellular IRAK4 HiBiT: DC50.
Target sequence in this assay (Q9NWZ3 whole entry): as the sequence (Q9NWZ3 whole entry, species assumed) above

pIC50: −log10 of the molar value.

In the case of `CNc1cc(-c2ccc3cc(C#N)cnn23)ncc1-c1nnc([C@H]2CC[C@H](N(C)C[C@@H]3CCN(c4ccc5c(c4)C(=O)N(C4CCC(=O)NC4=O)C5=O)C3)CC2)s1` (stereo partly drawn) [Example 171, 7-(5-(5-((1S,4r)-4-((((3S)-1-(2-(2,6-dioxopiperidin-3-yl)-1,3-dioxoisoindolin-5-yl)pyrrolidin-3-yl)methyl)(methyl)amino)cyclohexyl)-1,3,4-thiadiazol-2-yl)-4-(methylamino)pyridin-2-yl)pyrrolo[1,2-b]pyridazine-3-carbonitrile], the pIC50 at IRAK4 [1] is 9.40. On IRAK4 [2], the Dmax amounted to 77%. Moreover, the DC50 on IRAK4 [2] (Table 5) is 12.9 nM.

On to `CNc1cc(-c2ccc3cc(C#N)cnn23)ncc1-c1nnc(N2CCCC3(CN(C(=O)C[C@H](NC(=O)[C@@H]4C[C@@H](O)CN4C(=O)[C@@H](NC(=O)C4(F)CC4)C(C)(C)C)c4ccc(-c5scnc5C)cc4)C3)C2)s1` [Example 150, (2S,4R)—N—((S)-3-(6-(5-(6-(3-cyanopyrrolo[1,2-b]pyridazin-7-yl)-4-(methylamino)pyridin-3-yl)-1,3,4-thiadiazol-2-yl)-2,6-diazaspiro[3.5]nonan-2-yl)-1-(4-(4-methylthiazol-5-yl)phenyl)-3-oxopropyl)-1-((S)-2-(1-fluorocyclopropane-1-carboxamido)-3,3-dimethylbutanoyl)-4-hydroxypyrrolidine-2-carboxamide], for which the pIC50 at IRAK4 [1] was 8.26. Further, at IRAK4 [2], the Dmax was found to be 113%. At IRAK4 [2] (Table 5), the DC50 stood at 441 nM.

`CNc1cc(-c2ccc3cc(C#N)cnn23)ncc1-c1nnc([C@H]2CC[C@H](NC(=O)CCCCCNc3cccc4c3C(=O)N(C3CCC(=O)NC3=O)C4=O)CC2)s1` (stereo partly drawn) [Example 66, N-((1r,4r)-4-(5-(6-(3-cyanopyrrolo[1,2-b]pyridazin-7-yl)-4-(methylamino)pyridin-3-yl)-1,3,4-thiadiazol-2-yl)cyclohexyl)-6-((2-(2,6-dioxopiperidin-3-yl)-1,3-dioxoisoindolin-4-yl)amino)hexanamide]: on IRAK4 [1], the pIC50 is 8.80. For the same compound, the Dmax on IRAK4 [2] amounted to 54%. Besides, on IRAK4 [2] (Table 5), the DC50 came to 11.2 nM.

For `CNc1cc(-c2ccc3cc(C#N)cnn23)ncc1-c1nnc(C23CCC(NC(=O)[C@H]4CC[C@H](C(=O)N[C@H](C(=O)N5C[C@H](O)C[C@H]5C(=O)NCc5ccc(-c6scnc6C)cc5)C(C)(C)C)CC4)(CC2)CC3)s1` [Example 130, (1S,4r)-N1-(4-(5-(6-(3-cyanopyrrolo[1,2-b]pyridazin-7-yl)-4-(methylamino)pyridin-3-yl)-1,3,4-thiadiazol-2-yl)bicyclo[2.2.2]octan-1-yl)-N4—((S)-1-((2S,4R)-4-hydroxy-2-((4-(4-methylthiazol-5-yl)benzyl)carbamoyl)pyrrolidin-1-yl)-3,3-dimethyl-1-oxobutan-2-yl)cyclohexane-1,4-dicarboxamide], on IRAK4 [1], the pIC50 was 8.74. For the same compound, at IRAK4 [2] (Table 5), the “Cellular IRAK4 HiBiT: Dmax” value was determined as 110% and the DC50 is 126 nM.

In the case of `CNc1cc(-c2ccc3cc(C#N)cnn23)ncc1-c1nnc(C23CCC(NC(=O)CCOCCNc4cccc5c4C(=O)N(C4CCC(=O)NC4=O)C5=O)(CC2)CC3)s1` (stereo not drawn) [Example 111, N-(4-(5-(6-(3-cyanopyrrolo[1,2-b]pyridazin-7-yl)-4-(methylamino)pyridin-3-yl)-1,3,4-thiadiazol-2-yl)bicyclo[2.2.2]octan-1-yl)-3-(2-((2-(2,6-dioxopiperidin-3-yl)-1,3-dioxoisoindolin-4-yl)amino)ethoxy)propenamide], on IRAK4 [1], the pIC50 is 8.96. Moreover, the Dmax at IRAK4 [2] was 59%. The DC50 at IRAK4 [2] (Table 5) was 15.8 nM.

As for `CNc1cc(-c2ccc3cc(C#N)cnn23)ncc1-c1nnc(N2CCC(C3CCN(C(=O)CN4CCN(c5ccc6c(c5)C(=O)N(C5CCC(=O)NC5=O)C6=O)CC4)CC3)CC2)s1` (stereo not drawn) [Example 185, 7-(5-(5-(1′-(2-(4-(2-(2,6-dioxopiperidin-3-yl)-1,3-dioxoisoindolin-5-yl)piperazin-1-yl)acetyl)-[4,4′-bipiperidin]-1-yl)-1,3,4-thiadiazol-2-yl)-4-(methylamino)pyridin-2-yl)pyrrolo[1,2-b]pyridazine-3-carbonitrile], the pIC50 at IRAK4 [1] was 8.82. The Dmax at IRAK4 [2] came to 89%. Further, the DC50 at IRAK4 [2] (Table 5) is 126 nM.
